# Assay results taken from PubChem BioAssay (NCI).
#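 1) Cells in 96-well plates. 2) Compound, 48 h, 5 concentrations. 3) Linear interpolation between surrounding doses. 4) Unreached endpoint = highest concentration. GI50: concentration for 50% inhibition of growth. TGI marks complete inhibition of growth.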
# Experiments:
# Assay in all cases: NCI-60 cell line screen, 48 h
# [1] = test system: OVCAR-4 ovarian
# [2] = test system: HOP-92 NSCLC
# [3] = test system: SN12C renal
# [4] = test system: UO-31 renal
# [5] = test system: EKVX NSCLC
# [6] = test system: A498 renal
# [7] = test system: UACC-257 melanoma
# [8] = test system: NCI-H460 lung
# [9] = test system: SNB-75 CNS
# [10] = test system: OVCAR-8 ovarian
# [11] = test system: PC-3 prostate
# [12] = test system: NCI/ADR-RES ovarian
# [13] = test system: T-47D breast
# [14] = test system: LOX IMVI melanoma
# [15] = test system: DU-145 prostate
# [16] = test system: SK-MEL-2 melanoma
# [17] = test system: ACHN renal
# [18] = test system: BT-549 breast
# [19] = test system: HOP-62 NSCLC
# [20] = test system: M14 melanoma
# [21] = test system: COLO 205 colon
# [22] = test system: 786-0 renal
# [23] = test system: SF-268 CNS
# [24] = test system: UACC-62 melanoma
# [25] = test system: OVCAR-5 ovarian
# [26] = test system: HCC-2998 colon
# [27] = test system: MCF7 breast
# [28] = test system: NCI-H522 lung
# [29] = test system: RPMI-8226 leukemia
# [30] = test system: SW-620 colon
# [31] = test system: MALME-3M melanoma
# [32] = test system: NCI-H23 lung
# [33] = test system: HT29 colon
# [34] = test system: MDA-MB-231 breast
# [35] = test system: A549 NSCLC
# [36] = test system: HS 578T breast
# [37] = test system: SK-MEL-28 melanoma
# [38] = test system: IGROV1 ovarian
# [39] = test system: HCT-116 colon
# [40] = test system: U251 CNS
# [41] = test system: SK-MEL-5 melanoma
# [42] = test system: MDA-MB-435
# [43] = test system: SNB-19 CNS
# [44] = test system: TK-10 renal
# [45] = test system: SF-539 CNS
# [46] = test system: OVCAR-3 ovarian
# [47] = test system: HCT-15 colon
# [48] = test system: NCI-H226 lung
# [49] = test system: RXF 393 renal
# [50] = test system: K-562 leukemia
# [51] = test system: SK-OV-3 ovarian
# [52] = test system: CCRF-CEM leukemia
# [53] = test system: HL-60(TB) leukemia
# [54] = test system: SR leukemia
# [55] = test system: KM12 colon
# [56] = test system: MOLT-4 leukemia
# [57] = test system: SF-295 CNS
smiles,measurement,setting,value
C[P+](c1ccccc1)(c1ccc(Cl)cc1)c1ccc(Cl)cc1,TGI,[1],45200 nM
same,TGI,[2],40300 nM
same,TGI,[3],51200 nM
same,TGI,[4],> 100000 nM
same,TGI,[5],99300 nM
same,TGI,[6],98300 nM
same,TGI,[7],32600 nM
same,TGI,[8],> 100000 nM
same,TGI,[9],46000 nM
same,TGI,[10],36600 nM
same,TGI,[11],70600 nM
same,TGI,[12],> 100000 nM
same,TGI,[13],49300 nM
same,TGI,[14],32500 nM
same,TGI,[15],94600 nM
same,TGI,[16],46300 nM
same,TGI,[17],> 100000 nM
same,TGI,[18],68300 nM
same,TGI,[19],70400 nM
same,TGI,[20],34400 nM
same,TGI,[21],22000 nM
same,TGI,[22],> 100000 nM
same,TGI,[23],> 100000 nM
same,TGI,[24],28300 nM
same,TGI,[25],71500 nM
same,TGI,[26],24000 nM
same,TGI,[27],> 100000 nM
same,TGI,[28],33100 nM
same,TGI,[29],2410 nM
same,TGI,[30],> 100000 nM
same,TGI,[31],19600 nM
same,TGI,[32],31600 nM
same,TGI,[33],24100 nM
same,TGI,[34],82000 nM
same,TGI,[35],> 100000 nM
same,TGI,[36],78200 nM
same,TGI,[37],29000 nM
same,TGI,[38],21800 nM
same,TGI,[39],44900 nM
same,TGI,[40],39300 nM
same,TGI,[41],14400 nM
same,TGI,[42],18700 nM
same,TGI,[43],59100 nM
same,TGI,[44],36900 nM
same,TGI,[45],65400 nM
same,TGI,[46],10500 nM
same,TGI,[47],> 100000 nM
same,TGI,[48],88600 nM
same,TGI,[49],> 100000 nM
same,TGI,[50],74400 nM
same,TGI,[51],> 100000 nM
CCOC(=O)c1c(C)nc2c(c1N)/C(=C/c1ccccn1)C(=O)N2Cc1ccccc1,GI50,[1],1510 nM
same,TGI,[1],> 50000 nM
same,GI50,[2],903 nM
same,TGI,[2],1860 nM
same,GI50,[3],1150 nM
same,TGI,[3],3090 nM
same,GI50,[4],691 nM
same,TGI,[4],1370 nM
same,GI50,[5],1210 nM
same,TGI,[5],> 50000 nM
same,GI50,[6],1540 nM
same,TGI,[6],> 50000 nM
same,GI50,[8],1170 nM
same,TGI,[8],2800 nM
same,GI50,[10],1650 nM
same,TGI,[10],> 50000 nM
same,GI50,[11],1170 nM
same,TGI,[11],2640 nM
same,GI50,[52],1560 nM
same,TGI,[52],> 50000 nM
same,GI50,[13],1130 nM
same,TGI,[13],3300 nM
same,GI50,[14],830 nM
same,TGI,[14],1540 nM
same,GI50,[53],1610 nM
same,TGI,[53],> 50000 nM
same,GI50,[54],1370 nM
same,TGI,[54],> 50000 nM
same,GI50,[16],1160 nM
same,TGI,[16],3010 nM
same,GI50,[17],906 nM
same,TGI,[17],1760 nM
same,GI50,[18],1110 nM
same,TGI,[18],3090 nM
same,GI50,[55],1150 nM
same,TGI,[55],2850 nM
same,GI50,[20],1030 nM
same,TGI,[20],2390 nM
same,GI50,[21],1060 nM
same,TGI,[21],2380 nM
same,GI50,[22],867 nM
same,TGI,[22],1680 nM
same,GI50,[23],1410 nM
same,TGI,[23],> 50000 nM
same,GI50,[24],940 nM
same,TGI,[24],1960 nM
same,GI50,[25],1040 nM
same,TGI,[25],2680 nM
same,GI50,[26],895 nM
same,TGI,[26],1770 nM
same,GI50,[27],1380 nM
same,TGI,[27],4130 nM
same,GI50,[28],1060 nM
same,TGI,[28],2890 nM
same,GI50,[29],1210 nM
same,TGI,[29],3220 nM
same,GI50,[30],1000 nM
same,TGI,[30],2310 nM
same,GI50,[31],937 nM
same,TGI,[31],2200 nM
same,GI50,[32],1290 nM
same,TGI,[32],4350 nM
same,GI50,[33],1320 nM
same,TGI,[33],3140 nM
same,GI50,[35],2520 nM
same,TGI,[35],> 50000 nM
same,GI50,[36],2820 nM
same,TGI,[36],> 50000 nM
same,GI50,[37],1160 nM
same,TGI,[37],3210 nM
same,GI50,[38],1200 nM
same,TGI,[38],3470 nM
same,GI50,[39],847 nM
same,TGI,[39],1620 nM
same,GI50,[40],948 nM
same,TGI,[40],1720 nM
same,GI50,[41],950 nM
same,TGI,[41],1920 nM
same,GI50,[43],1090 nM
same,TGI,[43],2490 nM
same,GI50,[56],1720 nM
same,TGI,[56],> 50000 nM
same,GI50,[57],1900 nM
same,TGI,[57],> 50000 nM
same,GI50,[44],1510 nM
same,TGI,[44],> 50000 nM
same,GI50,[45],882 nM
same,TGI,[45],1770 nM
same,GI50,[46],900 nM
same,TGI,[46],1710 nM
same,GI50,[47],1070 nM
same,TGI,[47],2630 nM
same,GI50,[49],950 nM
same,TGI,[49],1790 nM
same,GI50,[50],1770 nM
same,TGI,[50],> 50000 nM
same,GI50,[51],3080 nM
same,TGI,[51],> 50000 nM
